The text below walks through data of patent US20040076974A1, “Liver necrosis predictive genes” (priority 2002, published 2004).

Where two headings read alike, the source gives them in different places.

In this data set the test system is Sprague Dawley rats. The procedure:
Sprague Dawley rats Crl:CD from Charles River, Raleigh, N.C. were divided into treated rats that receive a specific concentration of the compound (see Table 1) and. control rats that only received the vehicle in which the compound is mixed (e.g., saline).
At specified timepoints (6 h, 24 h and 72 h) after administration (intraperitoneal route) of the compound, a set number of rats (usually 3 control and 3 treated) were euthanized and tissues collected. Each, rat was heavily sedated with an overdose of CO2 by inhalation and a maximum amount of blood drawn. Exsanguination of the rat by this drawing of blood kills the rat. The method of collecting the tissues is very important and ensures preserving the quality of the mRNA in the tissues. The body of the rat was then opened up and prosectors rapidly removed the tissues (including) and immediately placed them into liquid nitrogen. […] The organs/tissues were then packaged into well-labeled plastic freezer quality bags and stored at −80 degrees until needed for isolation of the mRNA from a portion of the organ/tissue sample.
Histopathology scores for each animal (assigned on a compound-dose basis as indicated in Table 1) were entered with gene expression data by using the GeneSpring™ ‘Drawn Gene’ function. Correlations between the histopathology scores and gene expression were conducted with the distance measures listed below:
Toxicity classifications were entered for training and test set as a parameter column. Toxicity, as defined by observation of necrosis in the at 72 hours after treatment, was entered as a “yes” or “no” for each animal in a compound-dose group. Additionally, a parameter column for random histopathology classification was designated. This was done by randomly assigning the same number of “yes” and “no” calls to the individual animals.

Where [1] appears, read: Sprague Dawley, rat, in vivo, ip, 50 mg/kg, 72 h.
Where [2] appears, read: Sprague Dawley, rat, in vivo, ip, 200 mg/kg, 72 h.

With `CCC(=O)O[C@H]1[C@H](O[C@@H]2[C@@H](C)[C@H](O[C@H]3C[C@@](C)(OC)[C@@H](O)[C@H](C)O3)[C@@H](C)C(=O)O[C@H](CC)[C@@](C)(O)[C@H](O)[C@@H](C)C(=O)[C@H](C)C[C@@]2(C)O)O[C@H](C)C[C@@H]1N(C)C` [erythromycin estolate], the “Liver Toxicity Necrosis Classification” value by setting is: (72 h, dose 40) “no”; (compound-dose group at 72 h; dose 40) “no”; (compound-dose group at 72 h; dose 160) “no”; (dose 40, 72 h) “no”; (dose 160, 72 h) “no”. Further, the “Liver Necrosis” value by setting is: (rat, intraperitoneal, dose 40 mg/kg, 72 hours after treatment) “no”; (rat, intraperitoneal, dose 160 mg/kg, 72 hours after treatment) “no”. Besides, the “Score (histopathology liver necrosis severity score)” value came out at 1 (rat, intraperitoneal, dose 40 mg/kg, 72 hours; 1 = not remarkable, 2 and higher increasing severity); 1 (rat, intraperitoneal, dose 160 mg/kg, 72 hours; 1 = not remarkable, 2 and higher increasing severity).
For the compound `C[C@]12CC[C@@H]3c4ccc(O)cc4CC[C@H]3[C@@H]1CC[C@@H]2O` [estradiol], the “Score (histopathology liver necrosis severity score)” value (Sprague Dawley, rat, in vivo, ip, 0.1 mg/kg, 72 h) is 1 and the “Score (histopathology liver necrosis severity score)” value (Sprague Dawley, rat, in vivo, ip, 0.4 mg/kg, 72 h) stood at 1. Further, for the setting “rat, in vivo”, the “Liver Toxicity Necrosis Classification” value was “no”. Besides, the “Liver Necrosis” value (rat, in vivo, ip, 0.1 mg/kg) is “no” and the “Liver Necrosis” value (rat, in vivo, ip, 0.4 mg/kg) is recorded as “no”.
For the compound `CCO` [ethanol], the “Liver Toxicity Necrosis Classification” value (rat, in vivo) is reported as “no”. Also, where the note is “rat, in vivo, ip”, the “Liver Necrosis” value was “no” and the “Score (histopathology liver necrosis severity score)” value worked out at 1.
Turning to `Nc1nc(O)c2ncn(COC(CO)CO)c2n1` [gancyclovir], the “Score (histopathology liver necrosis severity score)” value under setting [1] is listed as 1 and the “Score (histopathology liver necrosis severity score)” value under setting [2] is recorded as 1. In addition, the “Liver Toxicity Necrosis Classification” value (rat, in vivo) is reported as “no”. In addition, the “Liver Necrosis” value runs as follows: (rat, in vivo, ip, 50 mg/kg) “no”; (rat, in vivo, ip, 200 mg/kg) “no”.
Regarding `NC(=O)NO` [hydroxyurea], the “Score (histopathology liver necrosis severity score)” value (Sprague Dawley, rat, in vivo, ip, 250 mg/kg, 72 h) worked out at 1 and the “Score (histopathology liver necrosis severity score)” value (Sprague Dawley, rat, in vivo, ip, 1000 mg/kg, 72 h) stood at 1. The “Liver Toxicity Necrosis Classification” value (rat, in vivo) is recorded as “no”. Also, the “Liver Necrosis” value (rat, in vivo, ip, 250 mg/kg) is “no” and the “Liver Necrosis” value (rat, in vivo, ip, 1000 mg/kg) was “no”.
For `NNC(=O)c1ccncc1` [isoniazid], the “Score (histopathology liver necrosis severity score)” value came out at 1 under setting [1] and 1 under setting [2]. In addition, the “Liver Toxicity Necrosis Classification” value (rat, in vivo) is “no”. Further, the “Liver Necrosis” value by setting is: (rat, in vivo, ip, 50 mg/kg) “no”; (rat, in vivo, ip, 200 mg/kg) “no”.
As to `CC(=O)N1CCN(c2ccc(OCC3COC(Cn4ccnc4)(c4ccc(Cl)cc4Cl)O3)cc2)CC1` (centres unmarked) [ketoconazole], the “Score (histopathology liver necrosis severity score)” value (Sprague Dawley, rat, in vivo, ip, 20 mg/kg, 72 h) amounted to 1 and the “Score (histopathology liver necrosis severity score)” value (Sprague Dawley, rat, in vivo, ip, 80 mg/kg, 72 h) is listed as 1. The “Liver Toxicity Necrosis Classification” value (rat, in vivo) is recorded as “no”. For the same compound, the “Liver Necrosis” value (rat, in vivo, ip, 20 mg/kg) is given as “no” and the “Liver Necrosis” value (rat, in vivo, ip, 80 mg/kg) is reported as “no”.
As to `CN(Cc1cnc2nc(N)nc(N)c2n1)c1ccc(C(=O)N[C@@H](CCC(=O)O)C(=O)O)cc1` [methotrexate], the “Score (histopathology liver necrosis severity score)” value (Sprague Dawley, rat, in vivo, ip, 5 mg/kg, 72 h) is recorded as 1. Under “rat, in vivo”, the “Liver Toxicity Necrosis Classification” value is “no”. Besides, the “Liver Necrosis” value (rat, in vivo, ip, 5 mg/kg) is “no”.
Regarding `C=CCN1CC[C@]23c4c5ccc(O)c4O[C@H]2C(=O)CC[C@@]3(O)[C@H]1C5` [naloxone], for the setting “rat, in vivo”, the “Liver Toxicity Necrosis Classification” value was “no”. Moreover, the “Score (histopathology liver necrosis severity score)” value is on record as 1 (rat, in vivo, ip); 1 (rat, intraperitoneal, dose 180 mg/kg, 72 hours; 1 = not remarkable, 2 and higher increasing severity). Besides, the “Liver Necrosis” value was “no” (rat, intraperitoneal, dose 180 mg/kg, 72 hours after treatment) and “no” (rat, intraperitoneal, dose 45 ml/kg, 72 hours after treatment).
With `COc1ccc(C[C@H](N)C(=O)N[C@H]2[C@@H](O)[C@H](n3cnc4c(N(C)C)ncnc43)O[C@@H]2CO)cc1` [puromycin], the “Score (histopathology liver necrosis severity score)” value by setting is: (Sprague Dawley, rat, in vivo, ip, 38 mg/kg, 72 h) 1; (Sprague Dawley, rat, in vivo, ip, 150 mg/kg, 72 h) 1. In addition, the “Liver Toxicity Necrosis Classification” value (rat, in vivo) was “no”. Also, the “Liver Necrosis” value runs as follows: (rat, in vivo, ip, 38 mg/kg) “no”; (rat, in vivo, ip, 150 mg/kg) “no”.
Consider `C=C[C@H]1C[N@@]2CC[C@H]1C[C@@H]2[C@@H](O)c1ccnc2ccc(OC)cc12` [quinidine], for which the “Liver Necrosis” value is “no” (rat, intraperitoneal, dose 25 mg/kg, 72 hours after treatment) and “no” (rat, intraperitoneal, dose 100 mg/kg, 72 hours after treatment). The “Score (histopathology liver necrosis severity score)” value was 1 (rat, intraperitoneal, dose 25 mg/kg, 72 hours; 1 = not remarkable, 2 and higher increasing severity); 1 (rat, intraperitoneal, dose 100 mg/kg, 72 hours; 1 = not remarkable, 2 and higher increasing severity).
For `Cn1c(=O)c2[nH]cnc2n(C)c1=O` [theophylline], the “Score (histopathology liver necrosis severity score)” value (Sprague Dawley, rat, in vivo, ip, 25 mg/kg, 72 h) is on record as 1 and the “Score (histopathology liver necrosis severity score)” value (Sprague Dawley, rat, in vivo, ip, 100 mg/kg, 72 h) is 1. For the same compound, the “Liver Toxicity Necrosis Classification” value (rat, in vivo) is given as “no”. Also, the “Liver Necrosis” value by setting is: (rat, in vivo, ip, 25 mg/kg) “no”; (rat, in vivo, ip, 100 mg/kg) “no”.
Consider aflatoxin B1, for which, where the note is “rat, in vivo, ip, 1 mg/kg”, the “Liver Necrosis” value was “Yes” and the “Score (histopathology liver necrosis severity score)” value was 8.
In the case of carboxy methyl cellulose, under “rat, in vivo, ip, 30 mg/kg”, the “Liver Necrosis” value is “no” and the “Score (histopathology liver necrosis severity score)” value was determined as 1.
In the case of gentamicin, the “Liver Toxicity Necrosis Classification” value is, setting by setting: (at 72 h; dose 38) “no”; (at 72 h; dose 150) “no”; (compound-dose group at 72 h, dose 38) “no”; (compound-dose group at 72 h, dose 150) “no”; (compound-dose group at 72 h; dose 38) “no”; (compound-dose group at 72 h; dose 150) “no”. The “Liver Toxicity Necrosis Classification” value (compound-dosegroup at 72 h; dose 38) is on record as “no”. The “Liver Necrosis” value (rat, intraperitoneal, dose 38 mg/kg, 72 hours after treatment) is given as “no” and the “Liver Necrosis” value (rat, intraperitoneal, dose 150 mg/kg, 72 hours after treatment) was “no”. The “Score (histopathology liver necrosis severity score)” value stood at 1 (rat, intraperitoneal, dose 38 mg/kg, 72 hours; 1 = not remarkable, 2 and higher increasing severity); 1 (rat, intraperitoneal, dose 150 mg/kg, 72 hours; 1 = not remarkable, 2 and higher increasing severity).
For lipopolysaccharide, the “Liver Toxicity Necrosis Classification” value (72 h, dose 8) is given as “yes”; the “Liver Toxicity Necrosis Classification” value (72 h; dose 2) is reported as “no”; the “Liver Toxicity Necrosis Classification” value (compound-dose group at 72 h, dose 2) was “no”; the “Liver Toxicity Necrosis Classification” value (compound-dose group at 72 h, dose 8) is reported as “yes”; the “Liver Toxicity Necrosis Classification” value (compound-dose group at 72 h; CCL4 1000, DMN 20, LPS 8) is recorded as “yes”; the “Liver Toxicity Necrosis Classification” value (compound-dose group at 72 h; dose 2) is “no”. Moreover, the “Liver Toxicity Necrosis Classification” value by setting is: (compound-dosegroup at 72 h; dose 2) “no”; (compound-dosegroup at 72 h; dose 8) “yes”. Where the note is “rat, high dose of Table 1, liver necrosis at 72 hours”, the “toxicity at the high dose” value is “produced toxicity”. Further, the “Liver Necrosis” value by setting is: (rat, intraperitoneal, dose 2 mg/kg, 72 hours after treatment) “no”; (rat, intraperitoneal, dose 8 mg/kg, 72 hours after treatment) “Yes”. Moreover, the “Score (histopathology liver necrosis severity score)” value reads like this: (rat, intraperitoneal, dose 2 mg/kg, 72 hours; 1 = not remarkable, 2 and higher increasing severity) 1; (rat, intraperitoneal, dose 8 mg/kg, 72 hours; 1 = not remarkable, 2 and higher increasing severity) 6. For the same compound, the “toxicity at the low dose” value (rat, low dose of Table 1, liver necrosis at 72 hours) was “not at the low dose”.
As for polyethylene glycol, for the setting “rat, in vivo, ip”, the “Liver Necrosis” value is reported as “no”.
